Consider 27 molecules from US10239873B2, “7-azaindole or 4,7-diazaindole derivatives as IKKϵ epsilon and TBK1 inhibitor and pharmaceutical composition comprising same” (GREEN CROSS CORPORATION, priority 2015, dated 2019).

pIC50: −log10 of the molar value.

One may read the pIC50 as the IC50 on a negative log10 scale, so that one unit is a factor of ten. Low values mean a large IC50, high ones a small IC50.

The target of this experiment is T1, TBK1 (Homo sapiens, UniProt Q9UHD2).
T1 construct: purchased Promega (Invitrogen is also named in the same bracket) V4158; PR8031B; V3991 (not assigned to the two kinases)
T1 sequence (Q9UHD2 1-729): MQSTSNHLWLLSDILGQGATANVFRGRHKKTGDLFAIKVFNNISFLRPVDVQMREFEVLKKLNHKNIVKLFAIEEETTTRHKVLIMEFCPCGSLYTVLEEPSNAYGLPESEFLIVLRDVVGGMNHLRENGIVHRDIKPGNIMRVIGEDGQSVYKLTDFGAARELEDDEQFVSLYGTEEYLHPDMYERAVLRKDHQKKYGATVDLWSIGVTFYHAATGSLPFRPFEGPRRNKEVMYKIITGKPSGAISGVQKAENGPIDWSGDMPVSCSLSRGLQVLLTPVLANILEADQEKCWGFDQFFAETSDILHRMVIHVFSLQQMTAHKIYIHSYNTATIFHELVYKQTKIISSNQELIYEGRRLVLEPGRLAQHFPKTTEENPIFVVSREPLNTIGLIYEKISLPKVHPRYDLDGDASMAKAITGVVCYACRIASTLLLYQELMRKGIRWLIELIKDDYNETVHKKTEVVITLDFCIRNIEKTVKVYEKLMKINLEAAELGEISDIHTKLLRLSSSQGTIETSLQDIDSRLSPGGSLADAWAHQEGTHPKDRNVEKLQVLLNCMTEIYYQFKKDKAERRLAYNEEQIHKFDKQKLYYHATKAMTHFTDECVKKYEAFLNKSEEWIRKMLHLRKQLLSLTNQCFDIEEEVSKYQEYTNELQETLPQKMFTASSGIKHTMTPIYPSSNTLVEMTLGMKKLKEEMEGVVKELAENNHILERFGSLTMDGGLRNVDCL
Description: ADP-Glo Kinase Assay, inhibition activity on TBK1. The format is biochemical. Here is the method:
Inhibition activities on IKKϵ and TBK1 were evaluated using the compounds of Examples 1 to 250.
The inhibition activities on IKKϵ and TBK1 were measured by a luminometer, IKKϵ/TBK1 Kinase Enzyme System (Promega, Ca# V4158; Invitrogen, PR8031B, Promega, Ca# V3991) and ADP-Glo Kinase Assay using ADP-Glo™ Kinase Analysis Kit (Promega, Ca# V9101) and a kinase reaction buffer [40 mM Tris(pH 7.5), 20 mM MgCl2, 0.1 mg/mL BSA] in accordance with the manufacturer's protocol.
(In ADP-Glo the light output rises with the ADP produced.)
In turn, `COc1ccc(-c2cnc3[nH]cc(C4=CCN(C(=O)OC(C)C)CC4)c3c2)cc1OC` [Example 147, Isopropyl 4-(5-(3,4-dimethoxyphenyl)-1H-pyrrolo[2,3-b]pyridin-3-yl)-5,6-dihydropyridine-1(2H)-carboxylate] showed a pIC50 of 6.96.

The molecule `CC(C)OC(=O)N1CC=C(c2c[nH]c3ncc(-c4cccc(S(C)(=O)=O)c4)cc23)CC1` [Example 149, Isopropyl 4-(5-(3-(methylsulfonyl)phenyl)-1H-pyrrolo[2,3-b]pyridin-3-yl)-5,6-dihydropyridine-1(2H)-carboxylate] gave a negative-log IC50 (pIC50) of 7.52. This pIC50 lies 0.56 log units higher than the previous one.

Molecule `CC(C)OC(=O)N1CC=C(c2c[nH]c3ncc(-c4ccc(S(N)(=O)=O)cc4)cc23)CC1` [Example 150, Isopropyl 4-(5-(4-sulfamoylphenyl)-1H-pyrrolo[2,3-b]pyridin-3-yl)-5,6-dihydropyridine-1(2H)-carboxylate] showed a pIC50 of 7.44.

For the molecule `CC(C)(C)OC(=O)N1CC=C(c2c[nH]c3ncc(-c4cccc(S(N)(=O)=O)c4)cc23)CC1` [Example 151, tert-Butyl 4-(5-(3-sulfamoylphenyl)-1H-pyrrolo[2,3-b]pyridin-3-yl)-5,6-dihydropyridine-1(2H)-carboxylate], the negative-log IC50 (pIC50) is 7.38.

In the case of `CC(C)(C)OC(=O)N1CC=C(c2c[nH]c3ncc(-c4ccc(S(N)(=O)=O)cc4)cc23)CC1` [Example 152, tert-Butyl 4-(5-(4-sulfamoylphenyl)-1H-pyrrolo[2,3-b]pyridin-3-yl)-5,6-dihydropyridine-1(2H)-carboxylate], the pIC50 is 7.09.

Consider `CC(C)(C)OC(=O)N1CC=C(c2c[nH]c3ncc(-c4ccc(CN5CCOCC5)s4)cc23)CC1` [Example 153, tert-Butyl 4-(5-(5-(morpholinomethyl)thiophen-2-yl)-1H-pyrrolo[2,3-b]pyridin-3-yl)-5,6-dihydropyridine-1(2H)-carboxylate], for which the negative logarithm of the IC50 (pIC50) is 6.10.

As to `CC(C)(C)OC(=O)N1CC=C(c2c[nH]c3ncc(-c4ccc(CN5CCOCC5)cc4)cc23)CC1` [Example 154, tert-Butyl 4-(5-(4-(morpholinomethyl)phenyl)-1H-pyrrolo[2,3-b]pyridin-3-yl)-5,6-dihydropyridine-1(2H)-carboxylate], the pIC50 was 6.49.

Turning to `CC(C)(C)OC(=O)N1CC=C(c2c[nH]c3ncc(-c4ccc(C(=O)N5CCOCC5)cc4)cc23)CC1` [Example 155, tert-Butyl 4-(5-(4-(morpholine-4-carbonyl)phenyl)-1H-pyrrolo[2,3-b]pyridin-3-yl)-5,6-dihydropyridine-1(2H)-carboxylate], the pIC50 was 7.41.

`CC(C)(C)OC(=O)N1CC=C(c2c[nH]c3ncc(-c4cccc(CN5CCOCC5)c4)cc23)CC1` [Example 156, tert-Butyl 4-(5-(3-(morpholinomethyl)phenyl)-1H-pyrrolo[2,3-b]pyridin-3-yl)-5,6-dihydropyridine-1(2H)-carboxylate] gave a pIC50 of 6.59.

As to `CC(C)(C)OC(=O)N1CC=C(c2c[nH]c3ncc(-c4ccc(N5CCOCC5)nc4)cc23)CC1` [Example 157, tert-Butyl 4-(5-(6-morpholinopyridin-3-yl)-1H-pyrrolo[2,3-b]pyridin-3-yl)-5,6-dihydropyridine-1(2H)-carboxylate], the pIC50 was 6.44.

With `CC(C)(C)OC(=O)N1CC=C(c2c[nH]c3ncc(-c4ccc(N5CCOCC5)cc4)cc23)CC1` [Example 158, tert-Butyl 4-(5-(4-morpholinophenyl)-1H-pyrrolo[2,3-b]pyridin-3-yl)-5,6-dihydropyridine-1(2H)-carboxylate], the negative-log IC50 (pIC50) is 6.39. The pIC50 values of the last two molecules are within 0.2 log units of each other.

`CC(C)(C)OC(=O)N1CC=C(c2c[nH]c3ncc(-c4ccc(N5CCCCC5)cc4)cc23)CC1` [Example 159, tert-Butyl 4-(5-(4-(piperidin-1-yl)phenyl)-1H-pyrrolo[2,3-b]pyridin-3-yl)-5,6-dihydropyridine-1(2H)-carboxylate] showed a pIC50 of 6.22.

As to `CC(C)(C)OC(=O)N1CC=C(c2c[nH]c3ncc(-c4ccc5c(c4)OCO5)cc23)CC1` [Example 160, tert-Butyl 4-(5-(benzo[d][1,3]dioxol-5-yl)-1H-pyrrolo[2,3-b]pyridin-3-yl)-5,6-dihydropyridine-1(2H)-carboxylate], the pIC50 is 5.70. This pIC50 is 0.52 log units lower than that of the molecule before.

`COc1ccc(-c2cnc3[nH]cc(C4=CCN(C(=O)OC(C)(C)C)CC4)c3c2)cn1` [Example 161, tert-Butyl 4-(5-(6-methoxypyridin-3-yl)-1H-pyrrolo[2,3-b]pyridin-3-yl)-5,6-dihydropyridine-1(2H)-carboxylate]: the negative logarithm of the IC50 (pIC50) was 6.22.

`CC(C)(C)OC(=O)N1CC=C(c2c[nH]c3ncc(-c4cccc(S(C)(=O)=O)c4)cc23)CC1` [Example 162, tert-Butyl 4-(5-(3-(methylsulfonyl)phenyl)-1H-pyrrolo[2,3-b]pyridin-3-yl)-5,6-dihydropyridine-1(2H)-carboxylate] had a pIC50 of 7.11.

In turn, `CNS(=O)(=O)c1cccc(-c2cnc3[nH]cc(C4=CCN(C(=O)OC(C)(C)C)CC4)c3c2)c1` [Example 163, tert-Butyl 4-(5-(3-(N-methylsulfamoyl)phenyl)-1H-pyrrolo[2,3-b]pyridin-3-yl)-5,6-dihydropyridine-1(2H)-carboxylate] showed a pIC50 of 7.23. This pIC50 and that of the molecule before are within 0.2 log units of each other.

The molecule `CC(C)(C)OC(=O)N1CC=C(c2c[nH]c3ncc(-c4ccc(S(C)(=O)=O)cc4)cc23)CC1` [Example 164, tert-Butyl 4-(5-(4-(methylsulfonyl)phenyl)-1H-pyrrolo[2,3-b]pyridin-3-yl)-5,6-dihydropyridine-1(2H)-carboxylate] had a negative logarithm of the IC50 (pIC50) of 6.60. Against the preceding molecule, the pIC50 is 0.63 log units lower.

In turn, `CNS(=O)(=O)c1ccc(-c2cnc3[nH]cc(C4=CCN(C(=O)OC(C)(C)C)CC4)c3c2)cc1` [Example 165, tert-Butyl 4-(5-(4-(N-methylsulfamoyl)phenyl)-1H-pyrrolo[2,3-b]pyridin-3-yl)-5,6-dihydropyridine-1(2H)-carboxylate] had a negative logarithm of the IC50 (pIC50) of 7.55.

Molecule `CC(=O)c1ccc(-c2cnc3[nH]cc(C4=CCN(C(=O)OC(C)(C)C)CC4)c3c2)cc1` [Example 166, tert-Butyl 4-(5-(4-acetylphenyl)-1H-pyrrolo[2,3-b]pyridin-3-yl)-5,6-dihydropyridine-1(2H)-carboxylate] showed a pIC50 of 6.02.

`COC(=O)c1ccc(-c2cnc3[nH]cc(C4=CCN(C(=O)OC(C)(C)C)CC4)c3c2)cc1` [Example 167, tert-Butyl 4-(5-(4-(methoxycarbonyl)phenyl)-1H-pyrrolo[2,3-b]pyridin-3-yl)-5,6-dihydropyridine-1(2H)-carboxylate] gave a pIC50 of 5.80.

Molecule `CC(C)(C)OC(=O)N1CC=C(c2c[nH]c3ncc(-c4ccc(C#N)cc4)cc23)CC1` [Example 168, tert-Butyl 4-(5-(4-cyanophenyl)-1H-pyrrolo[2,3-b]pyridin-3-yl)-5,6-dihydropyridine-1(2H)-carboxylate] showed a pIC50 of 5.89.

`CC(C)(C)OC(=O)N1CC=C(c2c[nH]c3ncc(-c4cccc(C#N)c4)cc23)CC1` [Example 169, tert-Butyl 4-(5-(3-cyanophenyl)-1H-pyrrolo[2,3-b]pyridin-3-yl)-5,6-dihydropyridine-1(2H)-carboxylate]: the pIC50 was 5.35.

`COc1ccc(-c2cnc3[nH]cc(C4=CCN(C(=O)OC5CCCC5)CC4)c3c2)cc1F` [Example 171, Cyclopentyl 4-(5-(3-fluoro-4-methoxyphenyl)-1H-pyrrolo[2,3-b]pyridin-3-yl)-5,6-dihydropyridine-1(2H)-carboxylate] had a pIC50 of 6.06.

`CS(=O)(=O)c1cccc(-c2cnc3[nH]cc(C4=CCN(C(=O)OC5CCCC5)CC4)c3c2)c1` [Example 172, Cyclopentyl 4-(5-(3-(methylsulfonyl)phenyl)-1H-pyrrolo[2,3-b]pyridin-3-yl)-5,6-dihydropyridine-1(2H)-carboxylate]: the pIC50 is 7.26.

The molecule `CS(=O)(=O)c1ccc(-c2cnc3[nH]cc(C4=CCN(C(=O)OC5CCCC5)CC4)c3c2)cc1` [Example 173, Cyclopentyl 4-(5-(4-(methylsulfonyl)phenyl)-1H-pyrrolo[2,3-b]pyridin-3-yl)-5,6-dihydropyridine-1(2H)-carboxylate] showed a pIC50 of 6.92.

Consider `CCS(=O)(=O)c1cccc(-c2cnc3[nH]cc(C4=CCN(C(=O)OC5CCCC5)CC4)c3c2)c1` [Example 174, Cyclopentyl 4-(5-(3-(ethylsulfonyl)phenyl)-1H-pyrrolo[2,3-b]pyridin-3-yl)-5,6-dihydropyridine-1(2H)-carboxylate], for which the negative logarithm of the IC50 (pIC50) is 6.72.

`O=C(OC1CCCC1)N1CC=C(c2c[nH]c3ncc(-c4ccc(S(=O)(=O)C5CC5)cc4)cc23)CC1` [Example 175, Cyclopentyl 4-(5-(4-(cyclopropylsulfonyl)phenyl)-1H-pyrrolo[2,3-b]pyridin-3-yl)-5,6-dihydropyridine-1(2H)-carboxylate] showed a negative-log IC50 (pIC50) of 6.46. Compared with the last molecule, the pIC50 is 0.26 log units lower.
